Experimental data published in patent US10052289B2, “Composition comprising an active agent with low aqueous solubility” (Flamel Ireland Limited, priority 2008, dated 2018).
≈ marks a conversion by molar mass, not a printed value. Where “and” joins values, the source holds several entries; their conditions need not be identical. Equal entries are not always repeated. Where two headings read alike, the source gives them in different places. Blank lines part the entries; values can stand above or below the compound they belong to.

Key:
[1] = Solubilization of ketoconazole in concentrated POM polymer solution (visual check); type: physicochemical; settings: for solubility: pH 7, aqueous with cosolvent or surfactant or cyclodextrin, thermodynamic from solid
[2] = physchem; settings: thermodynamic from solid
[3] = remark: listed apart in the source
Experimental: The preparation is centrifuged at 9,000 rpm for 30 minutes.

[4] = background statement; cited from earlier work
[5] = physchem; settings: for solubility at […]: 37 °C, pH 7, aqueous buffer, thermodynamic from solid
Experimental: 0.49 mg of paclitaxel (Bioxel) is introduced into a 2 liter volumetric flask. The flask is topped up to the fill line with a 0.05 M phosphate buffer at pH 7.0. The preparation is stirred using a magnetic bar, at 37° C.
The preparation is then placed in an ultrasonic bath for 60 min at ambient temperature.

[6] = Solubilization of paclitaxel in concentrated aqueous POM polymer solution (visual check); type: physicochemical; settings: for solubility: concentrated aqueous POM polymer solution
Experimental: 21.21 mg of paclitaxel (Bioxel) are introduced into a pill-box.
39.68 mg of paclitaxel (Bioxel) are introduced into a pill-box.
35.05 mg of paclitaxel (Bioxel) are introduced into a pill-box.

[7] = Solubilization of paclitaxel in aqueous POM polymer solution at 20 mg/ml (visual check); type: physicochemical; settings: for Solubilized active ingredient in μmol per g of polymer / Total concentration of active ingredient solibilized for 20 g/l of polymer: 20 g/l, pH 7.0, ambient temperature
Experimental: 4.99 mg of paclitaxel (Bioxel) are introduced into a pill-box.
10.33 mg of paclitaxel (Bioxel) are introduced into a pill-box.
7 mg of paclitaxel (Bioxel) are introduced into a pill-box.

[8] = physchem; settings: concentrated aqueous POM polymer solution, pH 7, aqueous with cosolvent or surfactant or cyclodextrin, thermodynamic from solid, Total concentration of solubilized active ingredient, ambient temperature
[9] = pH 7.0, ambient temperature
[10] = physchem; settings: pH 7, aqueous buffer, thermodynamic from solid, solubility in the absence of polymer
Experimental: 40 to 50 mg of carvedilol base are introduced into a 15 ml Falcon tube. 5 ml of aqueous solution of concentrated POM polymer at 20 mg/ml and at pH 7.0 are added. […] After this stage, the preparation is centrifuged at 9,000 rpm for 30 minutes in order to eliminate any undissolved crystals. […] It is diluted 1,000 times with a phosphate buffer at pH 7.0. The concentration of solubilized carvedilol is determined by UV spectrometry (at a wavelength of 240 nm and using a cell with a 1 cm optical path).

[11] = sodium polyglutamate DP=100, 10% VE, 52.8 mg/ml, pH 7.0, ambient temperature
[12] = sodium polyglutamate DP=100, 15% VE, 84.6 mg/ml, pH 7.0, ambient temperature
[13] = sodium polyglutamate DP=100, 20% VE, 156 mg/ml, pH 7.0, ambient temperature
[14] = sodium polyglutamate DP=100, 30% VE, 53.5 mg/ml, pH 7.0, ambient temperature
[15] = sodium polyglutamate DP=100, 5% VE
[16] = sodium polyglutamate DP=100, 10% VE
[17] = sodium polyglutamate DP=100, 15% VE
[18] = sodium polyglutamate DP=100, 20% VE
[19] = sodium polyglutamate DP=100, 10% VE, 52.8 mg/ml
[20] = sodium polyglutamate DP=100, 15% VE, 84.6 mg/ml
[21] = sodium polyglutamate DP=100, 20% VE, 156 mg/ml

SMILES: CC(=O)N1CCN(c2ccc(OCC3COC(Cn4ccnc4)(c4ccc(Cl)cc4Cl)O3)cc2)CC1 (centres unmarked) [ketoconazole]
solubility ([1]; concentrated aqueous POM polymer solution, concentrated polymers DP=100 containing between 15% and 20% vitamin E, read-out: concentrations of solubilized active ingredient): > 30 mM | solubility ([1]; concentrated aqueous POM polymer solution, sodium polyglutamate DP=100, 15% VE, 84.6 mg/ml, pH 7.0, ambient temperature, read-out: Total concentration of solubilized active ingredient): 31.1 mM (≈ 16500 µg/mL) | solubility ([1]; sodium polyglutamate DP=100, 10% VE, 52.8 mg/ml, pH 7.0, ambient temperature, read-out: Total concentration of solubilized active ingredient): 16 mM (≈ 8500 µg/mL) | solubility ([1]; sodium polyglutamate DP=100, 20% VE, 156 mg/ml, pH 7.0, ambient temperature, read-out: Total concentration of solubilized active ingredient): 53.5 mM (≈ 28400 µg/mL) | solubility ([1]; sodium polyglutamate DP=100, 30% VE, 53.5 mg/ml, pH 7.0, ambient temperature, read-out: Total concentration of solubilized active ingredient): 14.1 mM (≈ 7490 µg/mL) | Solubilized active ingredient in μmol per g of polymer [1, 11]: 303 μmol per g of polymer | Solubilized active ingredient in μmol per g of polymer [1, 12]: 367 μmol per g of polymer | Solubilized active ingredient in μmol per g of polymer [1, 13]: 343 μmol per g of polymer | Solubilized active ingredient in μmol per g of polymer [1, 14]: 264 μmol per g of polymer | solubility ([2]; aqueous POM polymer solution, pH 7, aqueous with cosolvent or surfactant or cyclodextrin, Total concentration of solubilized active ingredient for 20 g/l of polymer, sodium polyglutamate DP=100, 2% VE, 20 g/l, pH 7.0, ambient temperature): 0.565 mM (≈ 300 µg/mL) | solubility ([2]; aqueous POM polymer solution, pH 7, aqueous with cosolvent or surfactant or cyclodextrin, Total concentration of solubilized active ingredient for 20 g/l of polymer, sodium polyglutamate DP=100, 5% VE, 20 g/l, pH 7.0, ambient temperature): 2.54 mM (≈ 1350 µg/mL) | solubility ([2]; aqueous POM polymer solution, pH 7, aqueous with cosolvent or surfactant or cyclodextrin, Total concentration of solubilized active ingredient for 20 g/l of polymer, sodium polyglutamate DP=100, 10% VE, 20 g/l, pH 7.0, ambient temperature): 7.16 mM (≈ 3810 µg/mL) | solubility ([2]; aqueous POM polymer solution, pH 7, aqueous with cosolvent or surfactant or cyclodextrin, Total concentration of solubilized active ingredient for 20 g/l of polymer, sodium polyglutamate DP=100, 15% VE, 20 g/l, pH 7.0, ambient temperature): 7.16 mM (≈ 3810 µg/mL) | solubility ([2]; aqueous POM polymer solution, pH 7, aqueous with cosolvent or surfactant or cyclodextrin, Total concentration of solubilized active ingredient for 20 g/l of polymer, sodium polyglutamate DP=100, 20% VE, 20 g/l, pH 7.0, ambient temperature): 6.97 mM (≈ 3700 µg/mL) | solubility ([2]; aqueous medium without polymer, pH 7, aqueous buffer, solubility in the absence of polymer, pH 7.0, absence of polymer): ~0.02 mM (≈ 10.6 µg/mL) | Solubilized active ingredient in μmol per g of polymer (sodium polyglutamate DP=100, 2% VE, 20 g/l, pH 7.0, ambient temperature): 28 μmol per g of polymer | Solubilized active ingredient in μmol per g of polymer (sodium polyglutamate DP=100, 5% VE, 20 g/l, pH 7.0, ambient temperature): 127 μmol per g of polymer | Solubilized active ingredient in μmol per g of polymer (sodium polyglutamate DP=100, 10% VE, 20 g/l, pH 7.0, ambient temperature): 358 μmol per g of polymer | Solubilized active ingredient in μmol per g of polymer (sodium polyglutamate DP=100, 15% VE, 20 g/l, pH 7.0, ambient temperature): 358 μmol per g of polymer | Solubilized active ingredient in μmol per g of polymer (sodium polyglutamate DP=100, 20% VE, 20 g/l, pH 7.0, ambient temperature): 348 μmol per g of polymer | factor of increase of solubility [3]: approximately 200

solubility at […] ([5]; solubility in an aqueous buffer): < 0.25 µg/mL and < 0.3 µM | solubility at […] ([5]; solubility of the active ingredient measured without polymer): 0.0003 mM (≈ 0.256 µg/mL) | μmol of paclitaxel per gram of POM polymer ([6]; 90 mg/ml polyglutamate 20% VE): 49 μmol per gram of POM polymer | solubility at 5 h ([6]; aqueous polyglutamate (POM) polymer solution, pH 7, aqueous with cosolvent or surfactant or cyclodextrin, thermodynamic from solid, 90 mg/ml polyglutamate 20% VE): 3500 to 4000 µg/mL (≈ 4100 to 4680 µM) | solubility ([6]; pH 7, aqueous with cosolvent or surfactant or cyclodextrin, thermodynamic from solid, concentrated polymers DP=100 containing between 15% and 20% vitamin E, read-out: concentrations of solubilized active ingredient): > 3 mM | solubility ([6]; pH 7, aqueous with cosolvent or surfactant or cyclodextrin, thermodynamic from solid, sodium polyglutamate DP=100, 10% VE, 52.8 mg/ml, pH 7.0, ambient temperature, read-out: Total concentration of solubilized active ingredient): 1.5 mM (≈ 1280 µg/mL) | solubility ([6]; pH 7, aqueous with cosolvent or surfactant or cyclodextrin, thermodynamic from solid, sodium polyglutamate DP=100, 15% VE, 84.6 mg/ml, pH 7.0, ambient temperature, read-out: Total concentration of solubilized active ingredient): 3.5 mM (≈ 2990 µg/mL) | solubility ([6]; pH 7, aqueous with cosolvent or surfactant or cyclodextrin, thermodynamic from solid, sodium polyglutamate DP=100, 20% VE, 156 mg/ml, pH 7.0, ambient temperature, read-out: Total concentration of solubilized active ingredient): 6.4 mM (≈ 5470 µg/mL) | solubility ([6]; pH 7, aqueous with cosolvent or surfactant or cyclodextrin, thermodynamic from solid, sodium polyglutamate DP=100, 30% VE, 53.5 mg/ml, pH 7.0, ambient temperature, read-out: Total concentration of solubilized active ingredient): < 1.4 mM | Solubilized active ingredient in μmol per g of polymer [6, 11]: 29 μmol per g of polymer | Solubilized active ingredient in μmol per g of polymer [6, 12]: 42 μmol per g of polymer | Solubilized active ingredient in μmol per g of polymer [6, 13]: 41 μmol per g of polymer | Solubilized active ingredient in μmol per g of polymer [6, 14]: <26 μmol per g of polymer | μmol of paclitaxel per gram of POM polymer ([7]; 20 mg/ml polyglutamate DP=100, 20% VE): 47 μmol per gram of POM polymer | solubility at […] ([7]; aqueous polyglutamate (POM) polymer solution, pH 7, aqueous with cosolvent or surfactant or cyclodextrin, thermodynamic from solid, 20 mg/ml polyglutamate DP=100, 20% VE): ~800 µg/mL (≈ 937 µM) | Solubilized active ingredient in μmol per g of polymer [7, 15]: 12 μmol per g of polymer | Total concentration of active ingredient solibilized for 20 g/l of polymer [7, 15]: 0.00023 mol/L | Solubilized active ingredient in μmol per g of polymer [7, 16]: 29 μmol per g of polymer | Total concentration of active ingredient solibilized for 20 g/l of polymer [7, 16]: 0.00059 mol/L | Solubilized active ingredient in μmol per g of polymer [7, 17]: 47 μmol per g of polymer | Total concentration of active ingredient solibilized for 20 g/l of polymer [7, 17]: 0.00094 mol/L | Solubilized active ingredient in μmol per g of polymer [7, 18]: 47 μmol per g of polymer | Total concentration of active ingredient solibilized for 20 g/l of polymer [7, 18]: 0.00094 mol/L
SMILES: CC(=O)O[C@H]1C(=O)[C@@]2(C)[C@H]([C@H](OC(=O)c3ccccc3)[C@]3(O)C[C@H](OC(=O)[C@H](O)[C@@H](NC(=O)c4ccccc4)c4ccccc4)C(C)=C1C3(C)C)[C@]1(OC(C)=O)CO[C@@H]1C[C@@H]2O [paclitaxel]
aqueous solubility [4]: less than 1 μg/ml | appearance after ultrasonic treatment ([5]; 0.49 mg paclitaxel in 2 liter 0.05 M phosphate buffer pH 7.0, after stirring, ultrasonic bath 60 min at ambient temperature): A few grains of powder are still undissolved | appearance after magnetic stirring ([5]; 0.49 mg paclitaxel in 2 liter 0.05 M phosphate buffer pH 7.0, magnetic stirring […] at 37° C.): a few grains of undissolved powder remain

solubility [8, 19]: 33.7 mM (≈ 13700 µg/mL) | solubility [8, 20]: 40.1 mM (≈ 16300 µg/mL) | solubility [8, 21]: 84.6 mM (≈ 34400 µg/mL) | Solubilized active ingredient in μmol per g of polymer [9, 19]: 638 μmol per g of polymer | Solubilized active ingredient in μmol per g of polymer [9, 20]: 474 μmol per g of polymer | Solubilized active ingredient in μmol per g of polymer [9, 21]: 543 μmol per g of polymer | Solubilized active ingredient in μmol per g of polymer (pH 7): 28 μmol per g of polymer | Total concentration of solubilized active ingredient for 20 g/l of polymer (pH 7): 0.000565 mol/L | solubility at 90 min [10]: 0.12 mM (≈ 48.8 µg/mL)
SMILES: COc1ccccc1OCCNCC(O)COc1cccc2[nH]c3ccccc3c12 (centres unmarked) [carvedilol base, carvedilol]
